≈ marks a conversion by molar mass, not a printed value.
Experiments:
[1] = system: S. aureus ATCC 29213; test: Minimum Inhibitory Concentration (MIC) in LB media; type: cell-based, Staphylococcus aureus; details: for MIC: Staphylococcus aureus, ATCC29213, LB Media
Description: (§1) The compounds of Formula I are of interest due to their potent antibacterial effects. The ability of the invention compounds disclosed herein to achieve an antibacterial effect may be evaluated with regard to their ability to inhibit the growth of bacterial species like Escherichia coli ATCC 25922, Staphylococcus aureus ATCC 29213, Klebsiella pneumoniae ATCC 13883, Acinetobacter baumannii ATCC 19606, Pseudomonas aurigenosa ATCC 27853, Enterococcus faecalis ATCC 29212 and Enterococcus faecalis ATCC 29212 using an assay based on the following Minimum Inhibitory Concentration (MIC) protocol:
(§2) The test bacteria are grown in Luria Bertani Broth (HIMEDIA M1245), 25 grams of the powder is dissolved in 1000 ml distilled water and sterilized by autoclaving at 15 lbs pressure (121° C.) for 20 minutes. The medium sterility is checked by incubating at 37° C. for a period of 48 h.
(§3) Bacterial cultures that are stored as glycerol stocks at −80° C. are sub cultured on LB agar plates to obtain isolated colonies. A single colony of each strain is cultured in LB broth. The cultures are incubated at 37° C., 200 rpm till they reach an optical density (OD at 600 nm) of 0.8 to 1. […] Test compounds are dissolved in dimethyl sulfoxide (DMSO) to a stock concentration of 4 mg/ml. A twofold dilution series of this DMSO stock is prepared in a 96 well V bottom microtitre plate from rows A to H. A 3 μL volume of these dilutions are transferred to a 96-well flat bottom microtitre assay plate. Controls to monitor the effects of DMSO and media sterility are included. Each well is inoculated with 150 μL of the above diluted culture. The plates are incubated at 37° C. overnight in a humidified incubator. The following morning, the plates are read using a Spectrophotometer at 600 nm wavelength. […] The antibacterial activity (MIC) determined against representative Gram positive (S. aureus, E. faecalis) and Gram negative (E. coli, P. aurigenosa, K. pneumoniae and A. baumannii) pathogen were reported Table 1.

[2] = system: E. faecalis ATCC 29212; test: Minimum Inhibitory Concentration (MIC) in LB media; type: cell-based, Enterococcus faecalis; details: for MIC: Enterococcus faecalis, ATCC29212
Description: as §1, §2, §3

[3] = system: E. coli ATCC 25922; test: Minimum Inhibitory Concentration (MIC) in LB media; type: cell-based, Escherichia coli; details: for MIC: Escherichia coli, ATCC25922, LB Media
Description: as §1, §2, §3

[4] = system: P. aurigenosa ATCC 27853; test: Minimum Inhibitory Concentration (MIC) in LB media; type: cell-based, Pseudomonas aurigenosa; details: for MIC: Pseudomonas, ATCC27853, LB Media
Description: as §1, §2, §3

[5] = system: K. pneumoniae ATCC 13883; test: Minimum Inhibitory Concentration (MIC) in LB media; type: cell-based, Klebsiella pneumoniae; details: for MIC: Klebsiella pneumoniae, ATCC13883, LB Media
Description: as §1, §2, §3

[6] = system: A. baumannii ATCC 19606; test: Minimum Inhibitory Concentration (MIC) in LB media; type: cell-based, Acinetobacter baumannii; details: for MIC: Acinetobacter baumannii, ATCC19606, LB Media
Description: as §1, §2, §3

[7] = molecular target: E. coli DNA gyrase (Escherichia coli, UniProt P0AES4+P0AES6); test: biochemical; details: supercoiling assay
Sequence of E. coli DNA gyrase (P0AES4 whole entry, one chain of several): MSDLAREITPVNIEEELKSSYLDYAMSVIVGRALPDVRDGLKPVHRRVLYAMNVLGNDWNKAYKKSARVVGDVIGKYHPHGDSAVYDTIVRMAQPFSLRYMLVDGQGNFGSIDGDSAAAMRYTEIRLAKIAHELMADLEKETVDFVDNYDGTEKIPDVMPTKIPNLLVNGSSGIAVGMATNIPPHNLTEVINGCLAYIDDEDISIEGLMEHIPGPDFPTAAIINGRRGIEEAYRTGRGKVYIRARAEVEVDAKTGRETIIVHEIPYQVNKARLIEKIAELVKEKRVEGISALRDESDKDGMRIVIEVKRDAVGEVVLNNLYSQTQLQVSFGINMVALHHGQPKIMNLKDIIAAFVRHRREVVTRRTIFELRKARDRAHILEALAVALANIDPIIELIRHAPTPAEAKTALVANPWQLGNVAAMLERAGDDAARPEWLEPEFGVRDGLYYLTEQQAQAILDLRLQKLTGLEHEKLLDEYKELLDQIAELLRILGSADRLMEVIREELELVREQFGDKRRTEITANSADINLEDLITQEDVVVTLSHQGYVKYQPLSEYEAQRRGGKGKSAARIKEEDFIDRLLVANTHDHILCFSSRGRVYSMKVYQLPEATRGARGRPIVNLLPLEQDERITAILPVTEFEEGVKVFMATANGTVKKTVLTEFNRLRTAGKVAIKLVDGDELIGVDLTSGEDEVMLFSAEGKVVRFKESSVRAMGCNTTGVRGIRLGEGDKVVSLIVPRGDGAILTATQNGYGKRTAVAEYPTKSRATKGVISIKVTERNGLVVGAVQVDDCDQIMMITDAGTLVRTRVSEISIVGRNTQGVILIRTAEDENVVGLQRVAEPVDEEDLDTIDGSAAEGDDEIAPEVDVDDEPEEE

[8] = molecular target: E. coli topoisomerase IV (Escherichia coli, UniProt P0AFI2+P20083); test: biochemical; details: decatenation assay; read-out: E. coli Topo IV IC50
Sequence of E. coli topoisomerase IV (P0AFI2 whole entry): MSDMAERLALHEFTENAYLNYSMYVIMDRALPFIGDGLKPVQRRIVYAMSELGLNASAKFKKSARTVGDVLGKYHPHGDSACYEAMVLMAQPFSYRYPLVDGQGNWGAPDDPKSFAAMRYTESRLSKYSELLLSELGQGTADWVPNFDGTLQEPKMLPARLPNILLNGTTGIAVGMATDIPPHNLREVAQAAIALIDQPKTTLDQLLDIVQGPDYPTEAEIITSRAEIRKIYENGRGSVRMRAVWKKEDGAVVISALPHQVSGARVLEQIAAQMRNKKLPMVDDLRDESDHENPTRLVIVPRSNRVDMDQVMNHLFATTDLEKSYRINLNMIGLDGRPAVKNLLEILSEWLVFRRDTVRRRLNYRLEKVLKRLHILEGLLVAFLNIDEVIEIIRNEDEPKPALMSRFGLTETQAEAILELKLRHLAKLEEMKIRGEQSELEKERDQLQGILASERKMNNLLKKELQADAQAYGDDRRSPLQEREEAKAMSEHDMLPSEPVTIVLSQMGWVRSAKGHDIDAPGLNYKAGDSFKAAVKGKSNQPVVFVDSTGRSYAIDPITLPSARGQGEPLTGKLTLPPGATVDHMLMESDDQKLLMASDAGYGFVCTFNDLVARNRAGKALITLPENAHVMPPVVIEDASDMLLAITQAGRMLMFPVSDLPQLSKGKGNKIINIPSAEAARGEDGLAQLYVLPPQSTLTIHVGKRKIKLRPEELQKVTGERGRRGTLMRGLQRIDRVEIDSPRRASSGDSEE
Sequence of E. coli topoisomerase IV (P20083 whole entry): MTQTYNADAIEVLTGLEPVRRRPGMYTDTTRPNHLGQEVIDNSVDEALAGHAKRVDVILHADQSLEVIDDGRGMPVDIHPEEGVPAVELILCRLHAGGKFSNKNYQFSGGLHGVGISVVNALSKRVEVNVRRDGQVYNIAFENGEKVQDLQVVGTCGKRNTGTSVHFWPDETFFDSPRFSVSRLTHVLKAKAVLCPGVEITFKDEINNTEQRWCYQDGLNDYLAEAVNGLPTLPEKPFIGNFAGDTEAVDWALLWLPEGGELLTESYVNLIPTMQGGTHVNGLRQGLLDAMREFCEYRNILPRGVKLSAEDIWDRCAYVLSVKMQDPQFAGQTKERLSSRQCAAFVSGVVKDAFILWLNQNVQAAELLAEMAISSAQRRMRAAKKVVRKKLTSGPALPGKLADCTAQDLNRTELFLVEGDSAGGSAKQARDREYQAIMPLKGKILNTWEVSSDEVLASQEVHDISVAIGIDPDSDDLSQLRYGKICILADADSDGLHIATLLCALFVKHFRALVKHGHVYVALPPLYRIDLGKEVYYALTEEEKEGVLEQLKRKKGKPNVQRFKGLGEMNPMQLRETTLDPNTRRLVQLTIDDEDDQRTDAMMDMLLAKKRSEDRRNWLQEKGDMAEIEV

[9] = system: E. coli clinical strains; test: MIC50 and MIC90 studies using clinical strains (CLSI guidelines); type: cell-based
[10] = system: A. baumannii (Aba) clinical strains; test: as above; type: cell-based
[11] = system: K. pneumoniae (Kpn) clinical strains; test: as above; type: cell-based
[12] = system: P. aurigenosa (Pae) clinical strains; test: as above; type: cell-based
[13] = Escherichia coli, E. coli, 201 strains
[14] = Acinetobacter baumannii, Aba, 169 strains
[15] = Klebsiella pneumoniae, Kpn, 211 strains

## CN1C(=O)Cc2ccc(F)c(CCNCCC3CN(c4ccc5c(n4)NC(=O)CO5)C(=O)O3)c21 (single isomer, unassigned) [Example 14, 6-(5-(2-((2-(6-fluoro-1-methyl-2-oxoindolin-7-yl)ethyl)amino)ethyl)-2-oxooxazolidin-3-yl)-2H-pyrido[3,2-b][1,4]oxazin-3(4H)-one]
[1]; LB Media
  Minimum Inhibitory Concentration S. aureus ATCC 29213: 0.03 µg/mL
[2]
  Minimum Inhibitory Concentration E. faecalis ATCC 29212: 0.25 µg/mL
[3]; LB Media
  Minimum Inhibitory Concentration E. coli ATCC 25922: 0.03 µg/mL
[4]; LB Media
  Minimum Inhibitory Concentration P. aurigenosa ATCC 27853: 0.5 µg/mL
[5]; LB Media
  Minimum Inhibitory Concentration K. pneumoniae ATCC 13883: 0.125 µg/mL
[6]; LB Media
  Minimum Inhibitory Concentration A. baumannii ATCC 19606: 0.03 µg/mL
[7]
  IC50: 100 nM
[8]
  IC50: 36 nM
[9]; E. coli reference strain ATCC25922, no unit in this row (MIC50/MIC90 rows: μg/ml)
  MIC ATCC25922: 0.06 µg/mL (≈ 0.128 µM)
[9]; E. coli, 201 strains, unit inferred
  Minimum (MIC): 0.03 µg/mL
[9]; [13]
  MIC50: 0.25 µg/mL (≈ 0.533 µM)
  MIC90: 0.5 µg/mL (≈ 1.07 µM)
[10]; Aba reference strain ATCC19606, unit inferred
  MIC ATCC19606: 0.06 µg/mL (≈ 0.128 µM)
[10]; Aba, 169 strains, unit not given, in µg/mL
  Minimum (MIC): 0.015
[10]; [14]
  MIC50: 0.25 µg/mL (≈ 0.533 µM)
  MIC90: 0.5 µg/mL (≈ 1.07 µM)
[11]; [15]
  MIC50: 1 µg/mL (≈ 2.13 µM)
  MIC90: 4 µg/mL (≈ 8.52 µM)
[11]; Kpn reference strain ATCC13883, unit inferred
  MIC ATCC13883: 0.25 µg/mL (≈ 0.533 µM)
[11]; Kpn, 211 strains, unit inferred
  Minimum (MIC): 0.06 µg/mL
[12]; Pae reference strain ATCC27853, unit inferred
  MIC ATCC27853: 0.5 µg/mL (≈ 1.07 µM)
[12]; Pae, 215 strains
  MIC50: 0.5 µg/mL (≈ 1.07 µM)
  MIC90: 1 µg/mL (≈ 2.13 µM)
[12]; Pae, 215 strains, unit not given, in µg/mL
  Minimum (MIC): 0.03125

## CCN1C(=O)Cc2ccc(F)c(CNCCCC3CN(c4ccc5c(n4)NC(=O)CO5)C(=O)O3)c21 (stereo not shown) [Example 8, 6-(5-(3-(((1-Ethyl-6-fluoro-2-oxoindolin-7-yl)methyl)amino)propyl)-2-oxooxazolidin-3-yl)-2H-pyrido[3,2-b][1,4]oxazin-3(4H)-one]
[1]
  MIC: 0.07 µg/mL (≈ 0.145 µM)
[2]
  MIC: 0.15 µg/mL (≈ 0.31 µM)
[3]
  MIC: 0.15 µg/mL (≈ 0.31 µM)
[4]
  MIC: 2.5 µg/mL (≈ 5.17 µM)
[5]
  MIC: 0.3 µg/mL (≈ 0.62 µM)
[6]
  MIC: 0.15 µg/mL (≈ 0.31 µM)
[7]
  IC50: 54 nM
[8]
  IC50: 362 nM

## CN1C(=O)Cc2ccc(F)c(CNCCCC3CN(c4ccc5c(c4)NC(=O)CO5)C(=O)O3)c21 (stereo not shown) [Example 12, 6-(5-(3-(((6-fluoro-1-methyl-2-oxoindolin-7-yl)methyl)amino)propyl)-2-oxooxazolidin-3-yl)-2H-benzo[b][1,4]oxazin-3(4H)-one]
[1]
  MIC: 0.25 µg/mL (≈ 0.534 µM)
[2]
  MIC: 0.5 µg/mL (≈ 1.07 µM)
[3]
  MIC: 0.25 µg/mL (≈ 0.534 µM)
[4]
  MIC: 2 µg/mL (≈ 4.27 µM)
[5]
  MIC: 0.5 µg/mL (≈ 1.07 µM)
[6]
  MIC: 0.13 µg/mL (≈ 0.277 µM)
[7]
  IC50: 89 nM
[8]
  IC50: 600 nM

— patent US10711011B2, “Substituted oxazolidines as anti-bacterial agents” (BUGWORKS RESEARCH, INC., priority 2016, dated 2020)
